From the supplement of paper PMC10307832

Key:
Experiment in all cases: relative viability (nuclei count vs DMSO), 5 days (fraction); higher = more cells survive
HOP-62 = test system: HOP-62
How it was run: (§1)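 Lung cancer cell lines were seeded in 1536-well plates and dosed by pin tool the next day, with either a single drug or a fixed anchor-drug dose combined with five library-drug doses (not always all listed) spaced in √10 steps. Five days later, one step fixed the cells and stained their nuclei (final 0.05% Triton X-100, 1% formaldehyde, 1 ug/ml Hoechst), and nuclei were counted on 4× images. Relative viability is the nuclei count in treated wells divided by the count in vehicle wells, and each value is the median of duplicate plates.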

NCI-H838 = test system: NCI-H838
How it was run: as §1

LU99A = test system: LU99A
How it was run: as §1

NCI-H1355 = test system: NCI-H1355
How it was run: as §1

NCI-H1993 = test system: NCI-H1993
How it was run: as §1

NCI-H1651 = test system: NCI-H1651
How it was run: as §1

NCI-H2085 = test system: NCI-H2085
How it was run: as §1

NCI-H2023 = test system: NCI-H2023
How it was run: as §1

NCI-H358 = test system: NCI-H358
How it was run: as §1

HCC-44 = test system: HCC-44
How it was run: as §1

NCI-H650 = test system: NCI-H650
How it was run: as §1

NCI-H2347 = test system: NCI-H2347
How it was run: as §1

COR-L23 = test system: COR-L23
How it was run: as §1

HARA = test system: HARA
How it was run: as §1

HCC-15 = test system: HCC-15
How it was run: as §1

NCI-H2126 = test system: NCI-H2126
How it was run: as §1

UMC-11 = test system: UMC-11
How it was run: as §1

SW 1573 = test system: SW 1573
How it was run: as §1

LC-2-ad = test system: LC-2-ad
How it was run: as §1

EPLC-272H = test system: EPLC-272H
How it was run: as §1

PC-14 = test system: PC-14
How it was run: as §1

NCI-H1915 = test system: NCI-H1915
How it was run: as §1

ABC-1 = test system: ABC-1
How it was run: as §1

## O=c1cc(-c2cccc3c2Sc2ccccc2S3)oc(N2CCOCC2)c1 + Cc1cc(Nc2cc(N3CCN(C)CC3)nc(Sc3ccc(NC(=O)C4CC4)cc3)n2)n[nH]1 [Tozasertib] (partner 0.1 µM)
HOP-62; first compound 0.08 µM
  relative viability: 0.452
HOP-62; first compound 0.253 µM
  relative viability: 0.362
HOP-62; first compound 0.8 µM
  relative viability: 0.426
HOP-62; first compound 2.53 µM
  relative viability: 0.324
HOP-62; first compound 8 µM
  relative viability: 0.397
NCI-H838; first compound 0.08 µM
  relative viability: 0.295
NCI-H838; first compound 0.253 µM
  relative viability: 0.277
NCI-H838; first compound 0.8 µM
  relative viability: 0.245
NCI-H838; first compound 2.53 µM
  relative viability: 0.273
NCI-H838; first compound 8 µM
  relative viability: 0.266
LU99A; first compound 0.08 µM
  relative viability: 0.279
LU99A; first compound 0.253 µM
  relative viability: 0.252
LU99A; first compound 0.8 µM
  relative viability: 0.28
LU99A; first compound 2.53 µM
  relative viability: 0.285
LU99A; first compound 8 µM
  relative viability: 0.296
NCI-H1355; first compound 0.08 µM
  relative viability: 0.521
NCI-H1355; first compound 0.253 µM
  relative viability: 0.511
NCI-H1355; first compound 0.8 µM
  relative viability: 0.483
NCI-H1355; first compound 2.53 µM
  relative viability: 0.52
NCI-H1355; first compound 8 µM
  relative viability: 0.346
NCI-H1993; first compound 0.08 µM
  relative viability: 0.518
NCI-H1993; first compound 0.253 µM
  relative viability: 0.55
NCI-H1993; first compound 0.8 µM
  relative viability: 0.516
NCI-H1993; first compound 2.53 µM
  relative viability: 0.559
NCI-H1993; first compound 8 µM
  relative viability: 0.621
NCI-H1651; first compound 0.08 µM
  relative viability: 0.669
NCI-H1651; first compound 0.253 µM
  relative viability: 0.668
NCI-H1651; first compound 0.8 µM
  relative viability: 0.625
NCI-H1651; first compound 2.53 µM
  relative viability: 0.672
NCI-H1651; first compound 8 µM
  relative viability: 0.669
NCI-H2085; first compound 0.08 µM
  relative viability: 0.778
NCI-H2085; first compound 0.253 µM
  relative viability: 0.724
NCI-H2085; first compound 0.8 µM
  relative viability: 0.768
NCI-H2085; first compound 2.53 µM
  relative viability: 0.579
NCI-H2085; first compound 8 µM
  relative viability: 0.551
NCI-H2023; first compound 0.08 µM
  relative viability: 0.309
NCI-H2023; first compound 0.253 µM
  relative viability: 0.295
NCI-H2023; first compound 0.8 µM
  relative viability: 0.302
NCI-H2023; first compound 2.53 µM
  relative viability: 0.216
NCI-H2023; first compound 8 µM
  relative viability: 0.247
NCI-H358; first compound 0.08 µM
  relative viability: 0.0969
NCI-H358; first compound 0.253 µM
  relative viability: 0.101
NCI-H358; first compound 0.8 µM
  relative viability: 0.12
NCI-H358; first compound 2.53 µM
  relative viability: 0.0965
NCI-H358; first compound 8 µM
  relative viability: 0.111
HCC-44; first compound 0.08 µM
  relative viability: 0.888
HCC-44; first compound 0.253 µM
  relative viability: 1.01
HCC-44; first compound 2.53 µM
  relative viability: 0.717
HCC-44; first compound 8 µM
  relative viability: 0.54
NCI-H650; first compound 0.08 µM
  relative viability: 0.641
NCI-H650; first compound 0.253 µM
  relative viability: 0.662
NCI-H650; first compound 0.8 µM
  relative viability: 0.758
NCI-H650; first compound 8 µM
  relative viability: 0.708
NCI-H2347; first compound 0.08 µM
  relative viability: 0.668
NCI-H2347; first compound 0.253 µM
  relative viability: 0.605
NCI-H2347; first compound 0.8 µM
  relative viability: 0.351
NCI-H2347; first compound 2.53 µM
  relative viability: 0.53
NCI-H2347; first compound 8 µM
  relative viability: 0.404
COR-L23; first compound 0.08 µM
  relative viability: 0.202
COR-L23; first compound 0.253 µM
  relative viability: 0.202
COR-L23; first compound 0.8 µM
  relative viability: 0.188
COR-L23; first compound 2.53 µM
  relative viability: 0.148
COR-L23; first compound 8 µM
  relative viability: 0.172
HARA; first compound 0.08 µM
  relative viability: 0.099
HARA; first compound 0.253 µM
  relative viability: 0.0933
HARA; first compound 0.8 µM
  relative viability: 0.112
HARA; first compound 2.53 µM
  relative viability: 0.133
HARA; first compound 8 µM
  relative viability: 0.0897
HCC-15; first compound 0.08 µM
  relative viability: 0.437
HCC-15; first compound 0.253 µM
  relative viability: 0.428
HCC-15; first compound 0.8 µM
  relative viability: 0.504
HCC-15; first compound 2.53 µM
  relative viability: 0.39
HCC-15; first compound 8 µM
  relative viability: 0.307
NCI-H2126; first compound 0.08 µM
  relative viability: 0.825
NCI-H2126; first compound 0.253 µM
  relative viability: 0.875
NCI-H2126; first compound 0.8 µM
  relative viability: 0.824
NCI-H2126; first compound 2.53 µM
  relative viability: 0.781
NCI-H2126; first compound 8 µM
  relative viability: 0.788
UMC-11; first compound 0.08 µM
  relative viability: 0.198
UMC-11; first compound 0.253 µM
  relative viability: 0.19
UMC-11; first compound 0.8 µM
  relative viability: 0.189
UMC-11; first compound 2.53 µM
  relative viability: 0.202
UMC-11; first compound 8 µM
  relative viability: 0.234
SW 1573; first compound 0.08 µM
  relative viability: 0.175
SW 1573; first compound 0.253 µM
  relative viability: 0.186
SW 1573; first compound 0.8 µM
  relative viability: 0.197
SW 1573; first compound 2.53 µM
  relative viability: 0.175
SW 1573; first compound 8 µM
  relative viability: 0.125
LC-2-ad; first compound 0.08 µM
  relative viability: 0.389
LC-2-ad; first compound 0.253 µM
  relative viability: 0.405
LC-2-ad; first compound 0.8 µM
  relative viability: 0.484
LC-2-ad; first compound 2.53 µM
  relative viability: 0.411
LC-2-ad; first compound 8 µM
  relative viability: 0.435
EPLC-272H; first compound 0.08 µM
  relative viability: 0.238
EPLC-272H; first compound 0.253 µM
  relative viability: 0.193
EPLC-272H; first compound 0.8 µM
  relative viability: 0.299
EPLC-272H; first compound 2.53 µM
  relative viability: 0.237
EPLC-272H; first compound 8 µM
  relative viability: 0.236
PC-14; first compound 0.08 µM
  relative viability: 0.594
PC-14; first compound 0.253 µM
  relative viability: 0.572
PC-14; first compound 0.8 µM
  relative viability: 0.548
PC-14; first compound 8 µM
  relative viability: 0.554
NCI-H1915; first compound 0.08 µM
  relative viability: 0.495
NCI-H1915; first compound 0.253 µM
  relative viability: 0.446
NCI-H1915; first compound 0.8 µM
  relative viability: 0.428
NCI-H1915; first compound 2.53 µM
  relative viability: 0.401
NCI-H1915; first compound 8 µM
  relative viability: 0.332
ABC-1; first compound 0.08 µM
  relative viability: 0.184
ABC-1; first compound 0.253 µM
  relative viability: 0.203
ABC-1; first compound 0.8 µM
  relative viability: 0.158
ABC-1; first compound 2.53 µM
  relative viability: 0.181
ABC-1; first compound 8 µM
  relative viability: 0.156
